# Measured values reported in patent US9186358B2, “Combination therapy for treating or preventing an inflammatory skin disorder” (GALDERMA LABORATORIES, L.P., priority 2009, dated 2015).
# Key:
# [1] = tested on: AA-induced ear edema; assay: Arachidonic acid (AA)-induced acute ear edema in mice; format: in vivo, mice (BALB/c ByJ Rj); parameters: Edema Mean: unit not given here; settings: for reduced AA-induced ear edema in mice by up to: single topical application, highest over 1, 2 and 4 h; for Edema Mean / Inhibition vs AA %: topical with AA 4%
# Experimental: Positive control compound, indomethacin (CD0016), was dissolved in the AA solution at 5% by weight. […] Different compounds at different dosages were tested on 10 groups of animals, each group having 5 mice (see Table 4). […] After the last measurement, the animals were sacrificed by carbon dioxide following a preapproved protocol. The mean of the ear thickness measured from 5 animals in each of the 10 groups was calculated. The anti-inflammatory activity of a test compound was measured by its ability to reduce AA-induced ear edema, i.e., as the percentage of reduction in ear thickness of animals treated with the test compound and AA as compared with that treated with AA alone.
# [2] = tested on: TPA-induced ear edema; assay: TPA-induced ear edema in mice; format: in vivo, mice (BALB/c ByJ Rj); parameters: Ear Edema Mean: unit not given beside the values; settings: single topical application with TPA 0.01%, 6 h
# Experimental: The edema inducer, TPA, was dissolved in ethanol at 0.01% by weight to obtain a TPA solution (“TPA solution”). […] Positive control compound, betametasone valerate (CD0153), was dissolved in the TPA solution at 0.01% by weight. […] Different compounds at different dosages were tested on 10 groups of animals, each group having 5 mice (see Table 2). [table] The ear thickness of each of the 50 animals was measured at 6 hours after the compound application. After the measurement, the animals were sacrificed by carbon dioxide following a preapproved protocol. The mean of the ear thickness measured from 5 animals in each of the 10 groups was calculated. The anti-inflammatory activity of a test compound was measured by its ability to reduce TPA-induced ear edema, i.e., as the percentage of reduction in ear thickness of animals treated with both the test compound and TPA as compared with that treated with TPA alone.
# [3] = CD08100/02 at 0.1%, 1 h Measurement
# [4] = CD08100/02 at 0.1%, 2 h Measurement
# [5] = CD08100/02 at 0.1%, 4 h Measurement
# [6] = CD08100/02 at 0.3%, 1 h Measurement
# [7] = CD08100/02 at 0.3%, 2 h Measurement
# [8] = CD08100/02 at 0.3%, 4 h Measurement
# [9] = CD08100/02 at 1%, 1 h Measurement
# [10] = CD07805 at 0.2%, 1 h Measurement
# [11] = CD07805 at 0.2%, 2 h Measurement
# [12] = CD07805 at 0.2%, 4 h Measurement
smiles,measurement,setting,value
"O=C(O)Cc1ccccc1Nc1c(Cl)cccc1Cl [CD08100/02, 2-[2-(2,6-dichlorophenylamino)phenyl]acetic acid]",reduced AA-induced ear edema in mice by up to,[1]; CD08100/02 at 0.1%,up to 71.2%
same,Edema Mean,[1]; [3],4.2
same,Inhibition vs AA %,[1]; [3],63.8%
same,Edema Mean,[1]; [4],3
same,Inhibition vs AA %,[1]; [4],71.2%
same,Edema Mean,[1]; [5],2
same,Inhibition vs AA %,[1]; [5],67.7%
same,reduced AA-induced ear edema in mice by up to,[1]; CD08100/02 at 0.3%,≤ 80.6%
same,Edema Mean,[1]; [6],3.6
same,Inhibition vs AA %,[1]; [6],69.0%
same,Edema Mean,[1]; [7],2.2
same,Inhibition vs AA %,[1]; [7],78.8%
same,Edema Mean,[1]; [8],1.2
same,Inhibition vs AA %,[1]; [8],80.6%
same,reduced AA-induced ear edema in mice by up to,[1]; CD08100/02 at 1%,≤ 83.9%
same,Edema Mean,[1]; [9],2
same,Inhibition vs AA %,[1]; [9],82.8%
same,Edema Mean,"[1]; CD08100/02 at 1%, 2 h Measurement",1
same,Edema Mean,"[1]; CD08100/02 at 1%, 4 h Measurement",1
same,Ear Edema Mean,[2]; CD08100/02 at 0.1%,5.80
same,Inhibition vs TPA (%),[2]; CD08100/02 at 0.1%,63.8%
same,Ear Edema Mean,[2]; CD08100/02 at 0.3%,6.40
same,Inhibition vs TPA (%),[2]; CD08100/02 at 0.3%,60.0%
same,Ear Edema Mean,[2]; CD08100/02 at 1%,4.80
same,Inhibition vs TPA (%),[2]; CD08100/02 at 1%,70.0%
"Brc1c(NC2=NCCN2)ccc2nccnc12 [CD07805, (5-bromo-quinoxalin-6-yl)-(4,5-dihydro-1H-imidazol-2-yl)-amine]",reduced AA-induced ear edema in mice by up to,[1]; CD07805 at 0.2%,up to 80.8%
same,Edema Mean,[1]; [10],2.8
same,Inhibition vs AA %,[1]; [10],75.9%
same,Edema Mean,[1]; [11],2
same,Inhibition vs AA %,[1]; [11],80.8%
same,Edema Mean,[1]; [12],1.6
same,Inhibition vs AA %,[1]; [12],74.2%
same,Ear Edema Mean,[2]; CD07805 at 0.2%,8.60
same,Inhibition vs TPA (%),[2]; CD07805 at 0.2%,46.3%
"COc1ccc2c(c1)c(CC(=O)O)c(C)n2C(=O)c1ccc(Cl)cc1 [CD0016, indomethacin]",reduced AA-induced ear edema in mice by up to,[1]; CD0016 at 5%,up to 94.2%
same,Edema Mean,"[1]; CD0016 at 5%, 1 h Measurement",0.8
same,Inhibition vs AA %,"[1]; CD0016 at 5%, 1 h Measurement",93.1%
same,Edema Mean,"[1]; CD0016 at 5%, 2 h Measurement",0.6
same,Inhibition vs AA %,"[1]; CD0016 at 5%, 2 h Measurement",94.2%
same,Edema Mean,"[1]; CD0016 at 5%, 4 h Measurement",0.4
same,Inhibition vs AA %,"[1]; CD0016 at 5%, 4 h Measurement",93.5%
"CCCCC(=O)O[C@]1(C(=O)CO)[C@@H](C)C[C@H]2[C@@H]3CCC4=CC(=O)C=C[C@]4(C)[C@@]3(F)[C@@H](O)C[C@@]21C [CD0153, betametasone valerate]",Ear Edema Mean,[2]; CD0153 at 0.01%,0.40
same,Inhibition vs TPA (%),[2]; CD0153 at 0.01%,97.5%
